From US10227323B2, “Glucosylceramide synthase inhibitors for the treatment of diseases” (BIOMARIN PHARMACEUTICAL INC., priority 2013, dated 2019) come the findings set out here.

A value given as a limit tells only on which side of the number the result lay.

By IC50 is commonly meant the concentration needed to halve the response being measured.

The assay deals with T1, GCS (Canis lupus familiaris, UniProt A0A8I3MXG6).
T1 sequence (A0A8I3MXG6 1-394): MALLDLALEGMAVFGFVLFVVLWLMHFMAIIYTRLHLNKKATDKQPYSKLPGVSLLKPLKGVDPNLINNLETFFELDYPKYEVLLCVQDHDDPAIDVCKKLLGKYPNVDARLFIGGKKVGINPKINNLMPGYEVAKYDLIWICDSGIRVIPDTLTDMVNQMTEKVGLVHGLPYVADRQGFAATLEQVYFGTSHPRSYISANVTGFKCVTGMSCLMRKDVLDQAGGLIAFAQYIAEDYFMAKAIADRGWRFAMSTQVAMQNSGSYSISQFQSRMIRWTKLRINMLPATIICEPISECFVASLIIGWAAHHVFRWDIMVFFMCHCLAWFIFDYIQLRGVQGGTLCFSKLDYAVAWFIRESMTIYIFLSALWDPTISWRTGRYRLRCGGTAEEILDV
In words: Assay 1: GCS Enzymatic Assay (MDCK cell lysate, C6-NBD-Ceramide, LC/MS). Type of assay: biochemical, canine. To be noted: Table 2; data without asterisk; read-out: IC50 (nM) generated from Assay 1. The gist of the method:
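LC/MS/MS measurement of glucosylceramide and NBD-ceramide after a 1 h, 37 °C reaction with 100 μM UDP-glucose and 10 μM C6-NBD-ceramide gave IC50s or percent inhibition.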
On to `Cc1nn(C(C)C)c2cc(-c3ccc(C(=O)C(=O)N[C@H](CN4CCCC4)[C@H](O)c4cc(F)c5c(c4)OCCO5)cc3)ccc12` [Example 337, N-((1R,2R)-1-(8-fluoro-2,3-dihydrobenzo[b][1,4]dioxin-6-yl)-1-hydroxy-3-(pyrrolidin-1-yl)propan-2-yl)-2-(4-(1-isopropyl-3-methyl-1H-indazol-6-yl)phenyl)-2-oxoacetamide], for which the IC50 was less than 50 nM.

As to `O=C(N[C@H](CN1CCC1)[C@H](O)c1ccc(OC2CC2)c(Cl)c1)C(=O)c1cc2ccc(Cl)cc2s1` [Example 338, N-((1R,2R)-3-(azetidin-1-yl)-1-(3-chloro-4-cyclopropoxyphenyl)-1-hydroxypropan-2-yl)-2-(6-chlorobenzo[b]thiophen-2-yl)-2-oxoacetamide], the concentration for half-maximal inhibition (IC50) was less than 50 nM.

For `CC(C)c1ccc(-c2ccc(C(=O)C(=O)N[C@H](CN3CCCC3)[C@H](O)c3ccc(OC4CC4)c(Cl)c3)cc2)cc1` [Example 339, N-((1R,2R)-1-(3-chloro-4-cyclopropoxyphenyl)-1-hydroxy-3-(pyrrolidin-1-yl)propan-2-yl)-2-(4′-isopropyl-[1,1′-biphenyl]-4-yl)-2-oxoacetamide], the IC50 was less than 50 nM.

As for `Cc1nn(C)c2cc(-c3ccc(C(=O)C(=O)N[C@H](CN4CCCC4)[C@H](O)c4ccc(OC5CC5)c(Cl)c4)cc3)ccc12` [Example 340, N-((1R,2R)-1-(3-chloro-4-cyclopropoxyphenyl)-1-hydroxy-3-(pyrrolidin-1-yl)propan-2-yl)-2-(4-(1,3-dimethyl-1H-indazol-6-yl)phenyl)-2-oxoacetamide], the IC50 is less than 50 nM.

As to `Cc1nn(C)c2cc(-c3ccc(C(=O)C(=O)N[C@H](CN4CCCC4)[C@H](O)c4cc(F)c5c(c4)OCCO5)cc3)ccc12` [Example 341, 2-(4-(1,3-dimethyl-1H-indazol-6-yl)phenyl)-N-((1R,2R)-1-(8-fluoro-2,3-dihydrobenzo[b][1,4]dioxin-6-yl)-1-hydroxy-3-(pyrrolidin-1-yl)propan-2-yl)-2-oxoacetamide], the IC50 is less than 50 nM.

As for `Cc1c2ccc(-c3ccc(C(=O)C(=O)N[C@H](CN4CCCC4)[C@H](O)c4cc(F)c5c(c4)OCCO5)cc3)cc2nn1C` [Example 342, 2-(4-(2,3-dimethyl-2H-indazol-6-yl)phenyl)-N-((1R,2R)-1-(8-fluoro-2,3-dihydrobenzo[b][1,4]dioxin-6-yl)-1-hydroxy-3-(pyrrolidin-1-yl)propan-2-yl)-2-oxoacetamide], the half-maximal inhibitory concentration (IC50) was less than 50 nM.

Regarding `O=C(N[C@H](CN1CCCC1)[C@H](O)c1ccc(OC2CC2)c(Cl)c1)C(=O)c1ccc(N2CCCC2)cc1` [Example 343, N-((1R,2R)-1-(3-chloro-4-cyclopropoxyphenyl)-1-hydroxy-3-(pyrrolidin-1-yl)propan-2-yl)-2-oxo-2-(4-(pyrrolidin-1-yl)phenyl)acetamide], the IC50 is less than 50 nM.

For `COc1cc([C@@H](O)[C@@H](CN2CCCC2)NC(=O)C(=O)c2ccc(-c3ccc(F)cc3)cc2)cc(F)c1OC(C)C` [Example 344, N-((1R,2R)-1-(3-fluoro-4-isopropoxy-5-methoxyphenyl)-1-hydroxy-3-(pyrrolidin-1-yl)propan-2-yl)-2-(4′-fluoro-[1,1′-biphenyl]-4-yl)-2-oxoacetamide], the IC50 was less than 50 nM.

As for `CC(C)n1ccc2ccc(-c3ccc(C(=O)C(=O)N[C@H](CN4CCCC4)[C@H](O)c4cc(F)c5c(c4)OCCO5)cc3)cc21` [Example 345, N-((1R,2R)-1-(8-fluoro-2,3-dihydrobenzo[b][1,4]dioxin-6-yl)-1-hydroxy-3-(pyrrolidin-1-yl)propan-2-yl)-2-(4-(1-isopropyl-1H-indol-6-yl)phenyl)-2-oxoacetamide], the IC50 is less than 50 nM.

As to `CC(C)n1ccc2ccc(-c3ccc(C(=O)C(=O)N[C@H](CN4CCCC4)[C@H](O)c4ccc(OC5CC5)c(Cl)c4)cc3)cc21` [Example 346, N-((1R,2R)-1-(3-chloro-4-cyclopropoxyphenyl)-1-hydroxy-3-(pyrrolidin-1-yl)propan-2-yl)-2-(4-(1-isopropyl-1H-indo1-6-yl)phenyl)-2-oxoacetamide], the IC50 was less than 50 nM.

Turning to `Cc1c2ccc(-c3ccc(C(=O)C(=O)N[C@H](CN4CCCC4)[C@H](O)c4ccc(OC5CC5)c(Cl)c4)cc3)cc2nn1C` [Example 347, N-((1R,2R)-1-(3-chloro-4-cyclopropoxyphenyl)-1-hydroxy-3-(pyrrolidin-1-yl)propan-2-yl)-2-(4-(2,3-dimethyl-2H-indazol-6-yl)phenyl)-2-oxoacetamide], the IC50 was less than 50 nM.

As to `COc1cc([C@@H](O)[C@@H](CN2CCCC2)NC(=O)C(=O)c2cc3ccc(Cl)cc3s2)cc(F)c1OC(C)C` [Example 348, 2-(6-chlorobenzo[b]thiophen-2-yl)-N-((1R,2R)-1-(3-fluoro-4-isopropoxy-5-methoxyphenyl)-1-hydroxy-3-(pyrrolidin-1-yl)propan-2-yl)-2-oxoacetamide], the IC50 fell in the range of 50 to 5000 nM.

Turning to `O=C(N[C@H](CN1CCCC1)[C@H](O)c1ccc(OC2CC2)c(Cl)c1)C(=O)c1ccc(-c2ccn(C3CC3)n2)cc1` [Example 349, N-((1R,2R)-1-(3-chloro-4-cyclopropoxyphenyl)-1-hydroxy-3-(pyrrolidin-1-yl)propan-2-yl)-2-(4-(1-cyclopropyl-1H-pyrazol-3-yl)phenyl)-2-oxoacetamide], the IC50 is less than 50 nM.

As to `O=C(N[C@H](CN1CCCC1)[C@H](O)c1cc(F)c2c(c1)OCCO2)C(=O)c1ccc(-c2ccn(C3CC3)n2)cc1` [Example 350, 2-(4-(1-cyclopropyl-1H-pyrazol-3-yl)phenyl)-N-((1R,2R)-1-(8-fluoro-2,3-dihydrobenzo[b][1,4]dioxin-6-yl)-1-hydroxy-3-(pyrrolidin-1-yl)propan-2-yl)-2-oxoacetamide], the IC50 was less than 50 nM.

As to `CC(C)n1ccc(-c2ccc(C(=O)C(=O)N[C@H](CN3CCCC3)[C@H](O)c3ccc(OC4CC4)c(Cl)c3)cc2)n1` [Example 351, N-((1R,2R)-1-(3-chloro-4-cyclopropoxyphenyl)-1-hydroxy-3-(pyrrolidin-1-yl)propan-2-yl)-2-(4-(1-isopropyl-1H-pyrazol-3-yl)phenyl)-2-oxoacetamide], the IC50 was less than 50 nM.

In the case of `CC(C)n1ccc(-c2ccc(C(=O)C(=O)N[C@H](CN3CCCC3)[C@H](O)c3cc(F)c4c(c3)OCCO4)cc2)n1` [Example 352, N-((1R,2R)-1-(8-fluoro-2,3-dihydrobenzo[b][1,4]dioxin-6-yl)-1-hydroxy-3-(pyrrolidin-1-yl)propan-2-yl)-2-(4-(1-isopropyl-1H-pyrazol-3-yl)phenyl)-2-oxoacetamide], the half-inhibitory concentration (IC50) was less than 50 nM.

Consider `O=C(N[C@H](CN1CCCC1)[C@H](O)c1ccc(OC2CC2)c(Cl)c1)C(=O)c1ccc2c(cnn2-c2ccc(F)cc2)c1` [Example 353, N-((1R,2R)-1-(3-chloro-4-cyclopropoxyphenyl)-1-hydroxy-3-(pyrrolidin-1-yl)propan-2-yl)-2-(1-(4-fluorophenyl)-1H-indazol-5-yl)-2-oxoacetamide], for which the IC50 is less than 50 nM.

With `O=C(N[C@H](CN1CCCC1)[C@H](O)c1ccc(OC2CC2)c(Cl)c1)C(=O)c1ccc2nn(-c3ccc(F)cc3)cc2c1` [Example 354, N-((1R,2R)-1-(3-chloro-4-cyclopropoxyphenyl)-1-hydroxy-3-(pyrrolidin-1-yl)propan-2-yl)-2-(2-(4-fluorophenyl)-2H-indazol-5-yl)-2-oxoacetamide], the half-inhibitory concentration (IC50) was less than 50 nM.
